Literature values as cited in patent publication US11135214B2, “Methods for enhancing the bio availability and exposure of a voltage-gated potassium channel opener” (priority 2018, dated 2021).

What was measured:
[1] = tested on: neural membrane excitability; conditions: Ziemann et al. 2015; Ossemann et al. 2016; cited from earlier work
TEP components = conditions: TMS-EEG, Premoli et al. 2016; cited from earlier work
[2] = FDA Approved Labeling Text for Potiga; Harris and Murphy 2011; cited from earlier work
[3] = Prescott and Evans 2014; cited from earlier work

For Nc1nnc(-c2cccc(Cl)c2Cl)c(N)n1 [lamotrigine], which “motor threshold (at rest and under active muscular contraction)” value (from here on “motor threshold”) [1] is on record?
Its value is “increased”.

What about the P180 component (TEP components) of the same compound?
Its P180 component is “suppressed”.

And the “amplitude of the N45” value (TEP components)?
Its value is “increased”.

For NC(=O)N1c2ccccc2C=Cc2ccccc21 [carbamazepine], which “motor threshold” value [1] is on record?
Its value is “increased”.

Which “food effect on bioavailability and exposure after oral administration” value [2] does the source give for CCOC(=O)Nc1ccc(NCc2ccc(F)cc2)cc1N [retigabine] here?
The value was “lack of food effect”.

And the “motor threshold” value [1]?
Its value is “increased”.

And the “black-box warnings after long term use” value [3]?
The value was “discoloration of skin, lips, nails and retinal pigmentary changes”.

With CC[C@@H](C(N)=O)N1CCCC1=O [levetiracetam] as the compound, how does the P180 component (TEP components) read?
The P180 component was “suppressed”.

What about the “amplitude of the N45” value (TEP components) of the same compound?
The value was “increased”.
